Reference: patent US6737438B2, “Substituted 1,2,4-trioxanes useful as antimalarial agents and a process for the preparation thereof” (Council of Scientific and Industrial Research, priority 2002, dated 2004)
Like-named read-outs stand apart in the source and are kept apart here.

System: multidrug resistant strain of Plasmodium yoelii Nigeriensis
Assay: Antimalarial activity against multidrug resistant P. yoelii in swiss mice
Type: in vivo
Settings: for % Suppression on Day 4 / inhibition in vivo at 96 mg/kg: 4 consecutive days (day 0-3), parasitaemia vs vehicle control; for Cured/treated: observed till day 28; for inhibition in vivo at 96 mg/kg / responders at 96 mg/kg: Plasmodium yoelii; for inhibition in vivo at 96 mg/kg: 96 h, read-out: % Suppression on Day 4; for responders at 96 mg/kg: 672 h, observed till day 28, read-out: Cured/treated (converted)

| Compound | % Suppression on Day 4 (i.m., 96 mg/kg) | Cured/treated (i.m., 96 mg/kg) | % Suppression on Day 4 (oral, 96 mg/kg) | Cured/treated (oral, 96 mg/kg) | also measured |
| --- | --- | --- | --- | --- | --- |
| 8-[(4′-cyclooctylphenyl)vinyl]-6,7,10-trioxaspiro(4,5)undecane [Trioxane 7de] | 57.4% | 0/5 | 100% | 3/5 |  |
| C=C(c1ccc(C2CCCCC2)cc1)C1COC2(CCC(c3ccccc3)CC2)OO1 (mixture of isomers) [Trioxane 7be] | 91.6% | 0/5 |  |  | % Suppression on Day 4 (oral, 48 mg/kg): 100%; Cured/treated (oral, 48 mg/kg): 5/5 |
| C(=CC1COC2(CCCC2)OO1)c1ccc(C2CCCC2)cc1 (centres unmarked) [Trioxane 7aa, 8-[(4′-Cyclopentylphenyl)vinyl]-6,7,10-trioxaspiro-[4,5]-decane] | 100% | 0/5 | 100% | 5/5 |  |
| C=C(c1ccc(C2CCCC2)cc1)C1COC2(CCC(c3ccccc3)CC2)OO1 (centres unmarked) [Trioxane 7ab] | 77.56% | 0/5 | 100% | 0/5 |  |
| C(=CC1COC2(CCCCC2)OO1)c1ccc(C2CCCC2)cc1 (centres unmarked) [Trioxane 7ac, 3-[(4′-cyclopentylphenyl)vinyl]-1,2,5-trioxaspiro(5,5)undecane] | 84.94% | 0/5 | 100% | 5/5 |  |
| C(=CC1COC2(CCCCCC2)OO1)c1ccc(C2CCCC2)cc1 (centres unmarked) [Trioxane 7ad] | 48% | 0/5 | 88.68% | 0/5 |  |
| C=C(c1ccc(C2CCCC2)cc1)C1COC2(CCC(C(C)(C)CC)CC2)OO1 (centres unmarked) [Trioxane 7ae] | 43.58% | 0/5 | 100% | 0/5 |  |
| C(=CC1COC(c2ccccc2)OO1)c1ccc(C2CCCCC2)cc1 (centres unmarked) [Trioxane 7bc, 6-[(4′-cyclohexylphenyl)vinyl]-3-phenyl-1,2,4-trioxane] | 41.98% | 0/5 | 95.64% | 0/5 |  |
| C(=CC1COC2(CCCCC2)OO1)c1ccc(C2CCCCC2)cc1 (centres unmarked) [Trioxane 7bd, 3-[(4′-Cyclohexylphenyl)vinyl]-1,2,5-trioxaspiro(5,5)undecane] | 71.73% | 0/5 | 100% | 5/5 |  |
| CCC1(C)OCC(C=Cc2ccc(C3CCCCC3)cc2)OO1 (centres unmarked) [Trioxane 7bf] | 71.26% | 0/5 | 100% | 0/5 |  |
| C(=CC1COC2(CCCC2)OO1)c1ccc(C2CCCCC2)cc1 (centres unmarked) [Trioxane 7bh, 8-[(4′-cyclohexylphenyl)vinyl]-6,7,10-trioxaspiro (4,5) decane] | 100% | 1/4 | 100% | 4/4 |  |
| C=C(c1ccc(C2CCCCC2)cc1)C1COC2(CCC(C(C)(C)CC)CC2)OO1 (centres unmarked) [Trioxane 7bi] | 53.01% | 0/5 | 100% | 5/5 |  |
| C(=CC1COC2(CCCCC2)OO1)c1ccc(C2CCCCCC2)cc1 (centres unmarked) [Trioxane 7ca, 3-[(4′-cycloheptylphenyl)vinyl]-1,2,5-trioxaspiro-[5,5]-undecane] | 62.18% | 0/5 | 100% | 1/5 |  |
| C=C(c1ccc(C2CCCCCC2)cc1)C1COC2(CCC(C(C)(C)CC)CC2)OO1 (centres unmarked) [Trioxane 7cb] | 86.31% | 0/5 | 100% | 5/5 |  |
| C=C(c1ccc(C2CCCCCC2)cc1)C1COC2(CCC(c3ccccc3)CC2)OO1 (centres unmarked) [Trioxane 7cd] | 58.17% | 0/5 | 100% | 2/5 |  |
| C(=CC1COC2(CCCCC2)OO1)c1ccc(C2CCCCCCC2)cc1 (centres unmarked) [Trioxane 7db, 3-[(4′-cyclooctylphenyl)vinyl]-1,2,5-trioxaspiro-(5,5)-undecane] | 9.5% | 0/5 | 100% | 5/5 |  |
| C=C(c1ccc(C2CCCCCCC2)cc1)C1COC2(CCC(c3ccccc3)CC2)OO1 (centres unmarked) [Trioxane 7dd] | 73.81% | 0/5 | 100% | 4/5 |  |
| C=C(c1ccc(C2CCCCCCC2)cc1)C1COC2(CCC(C(C)(C)CC)CC2)OO1 (centres unmarked) [Trioxane 7df] | 0% | 0/5 | 100% | 3/5 |  |

| Compound | % Suppression on Day 4 (i.m., 96 mg/kg) | Cured/treated (i.m., 96 mg/kg) | % Suppression on Day 4 (oral, 96 mg/kg) | Cured/treated (oral, 96 mg/kg) | also measured |
| --- | --- | --- | --- | --- | --- |
| C(=CC1COC2(CCCC2)OO1)c1ccc(-c2ccccc2)cc1 (centres unmarked) [Trioxane 7eb, 8-[([1,1′-biphenyl]-4yl)vinyl]-6,7,10-trioxaspiro (4,5) decane] |  |  |  |  | inhibition in vivo at 96 mg/kg (oral, 96 mg/kg): 100%; responders at 96 mg/kg (oral, 96 mg/kg): 0%; inhibition in vivo at 96 mg/kg (im, i.m., 96 mg/kg): 100%; responders at 96 mg/kg (im, i.m., 96 mg/kg): 100% |
| C(=CC1COC2(CCCCC2)OO1)c1ccc(-c2ccccc2)cc1 (centres unmarked) [Trioxane 7ec, 3-[([1,1′-biphenyl]-4yl)vinyl]-1,2,5-trioxaspiro (5,5) undecane] |  |  |  |  | inhibition in vivo at 96 mg/kg (oral, 96 mg/kg): 100%; responders at 96 mg/kg (oral, 96 mg/kg): 100%; inhibition in vivo at 96 mg/kg (im, i.m., 96 mg/kg): 100%; responders at 96 mg/kg (im, i.m., 96 mg/kg): 0% |
| C=C(c1ccc(-c2ccccc2)cc1)C1COC2(CCC(c3ccccc3)CC2)OO1 (centres unmarked) [Trioxane 7ef] | 42.7% | 0/5 | 100% | 2/5 |  |
| C=C(c1ccc(-c2ccccc2)cc1)C1COC2(CCC(C(C)(C)CC)CC2)OO1 (centres unmarked) [Trioxane 7eg] | 87.6% | 0/5 | 100% | 3/5 |  |
| C(=CC1COC2(CCCCCC2)OO1)c1ccc(-c2ccccc2)cc1 (centres unmarked) [Trioxane 7eh, 3[([1,1′-biphenyl]-4yl)vinyl]-1,2,5-trioxaspiro(5,6)dodecane] |  |  |  |  | inhibition in vivo at 96 mg/kg (oral, 96 mg/kg): 100%; responders at 96 mg/kg (oral, 96 mg/kg): 80%; inhibition in vivo at 96 mg/kg (im, i.m., 96 mg/kg): 92%; responders at 96 mg/kg (im, i.m., 96 mg/kg): 0% |
| CC1(C)OCC(C=Cc2ccc(-c3ccc(Br)cc3)cc2)OO1 (centres unmarked) [Trioxane 7fa, 3,3-Dimethyl-6-[(4′-bromo-[1,1′-biphenyl]-4-yl)-vinyl]-1,2,4-trioxane] |  |  | died |  | inhibition in vivo at 96 mg/kg (im, i.m., 96 mg/kg): 83.7%; responders at 96 mg/kg (im, i.m., 96 mg/kg): 0% |
| CCC1(C)OCC(C=Cc2ccc(-c3ccc(Br)cc3)cc2)OO1 (centres unmarked) [Trioxane 7fb, 3-Ethyl-3-methly-6-[(4′-bromo-[1,1′-biphenyl]-4-yl)-vinyl]-1,2,4-trioxane] | 51.41% | 0/5 | 100% | 0/5 |  |
| Brc1ccc(-c2ccc(C=CC3COC4(CCCCC4)OO3)cc2)cc1 (centres unmarked) [Trioxane 7fc, 3-[(4′-bromo-[1,1′-biphenyl]-4-yl)-vinyl]-1,2,5-trioxaspiro (5,5) undecane] |  |  |  |  | inhibition in vivo at 96 mg/kg (oral, 96 mg/kg): 100%; responders at 96 mg/kg (oral, 96 mg/kg): 100%; inhibition in vivo at 96 mg/kg (im, i.m., 96 mg/kg): 46.4%; responders at 96 mg/kg (im, i.m., 96 mg/kg): 20% |
| C=C(c1ccc(-c2ccc(Br)cc2)cc1)C1COC2(CCC(C(C)(C)CC)CC2)OO1 (centres unmarked) [Trioxane 7fd] |  |  | 88.39% | 0/5 | % Suppression on Day 4 (i.m., 48 mg/kg): 51.09%; Cured/treated (i.m., 48 mg/kg): 0/5 |
| Brc1ccc(-c2ccc(C=CC3COC4(CCCC4)OO3)cc2)cc1 (centres unmarked) [Trioxane 7fe, 8-[(4′-bromo-[1,1′-biphenyl]-4yl)vinyl]-6,7,10-trioxaspiro (4,5) decane] |  |  |  |  | inhibition in vivo at 96 mg/kg (oral, 96 mg/kg): 100%; responders at 96 mg/kg (oral, 96 mg/kg): 60%; inhibition in vivo at 96 mg/kg (im, i.m., 96 mg/kg): 89.4%; responders at 96 mg/kg (im, i.m., 96 mg/kg): 0% |
| C=C(c1ccc(-c2ccc(Br)cc2)cc1)C1COC2(CCC(c3ccccc3)CC2)OO1 (centres unmarked) [Trioxane 7ff] | 46.1% | 0/5 | 100% | 2/5 |  |
| C=C(c1ccc(C2CCCC2)cc1)C1COC2(CC3CCC2C3)OO1 (centres unmarked) [Trioxane 8a] | 81.23% | 0/5 | 100% | 5/5 |  |
| C=C(c1ccc(C2CCCCC2)cc1)C1COC2(CC3CCC2C3)OO1 (centres unmarked) [Trioxane 8b] | 100% | 3/5 |  |  | % Suppression on Day 4 (oral, 48 mg/kg): 100%; Cured/treated (oral, 48 mg/kg): 6/6 |
| C=C(c1ccc(C2CCCCCC2)cc1)C1COC2(CC3CCC2C3)OO1 (centres unmarked) [Trioxane 8c] | 43.55% | 0/5 | 100% | 3/5 |  |
| C=C(c1ccc(-c2ccccc2)cc1)C1COC2(CC3CCC2C3)OO1 (centres unmarked) [Trioxane 8e] | 100% | 1/4 | 100% | 4/4 |  |
| C=C(c1ccc(-c2ccc(Br)cc2)cc1)C1COC2(CC3CCC2C3)OO1 (centres unmarked) [Trioxane 8f] | 100% | 0/5 | 100% | 5/5 |  |
| C=C(c1ccc(C2CCCC2)cc1)C1COC2(OO1)C1CC3CC(C1)CC2C3 (centres unmarked) [Trioxane 9a] | 81.23% | 0/5 | 100% | 5/5 |  |
| C=C(c1ccc(C2CCCCC2)cc1)C1COC2(OO1)C1CC3CC(C1)CC2C3 (centres unmarked) [Trioxane 9b] | 82.16% | 0/5 | 100% | 5/5 |  |
